Measured values published in article PMC11672637, “7-O-Carboxylic Acid-Substituted 3-O-Alkyl Difluoroquercetin; An Aztreonam-Potentiating Agent Against Carbapenemase-Producing Pseudomonas aeruginosa Through Simultaneous Inhibition of Metallo-β-Lactamase and Efflux Pump” (Antibiotics, 2024).
Converted amounts (≈) assume the structure as drawn. Where two headings read alike, the source gives them in different places.

Tests used:
Type in all cases: cell-based, P. aeruginosa
[1] = tested on: ATM-Resistant CPPA (n = 15); assay: MIC distribution over clinical isolates; conditions: Pseudomonas aeruginosa
PA-035, blaGES = assay: MIC / checkerboard with ATM; design: key to Susceptibility category: S: susceptible; I: intermediate; R: resistant; conditions: for MIC: Pseudomonas aeruginosa
PA-003, blaVIM [2] = assay: Time–kill assay; conditions: 24 h
Procedure: (§1) Aliquots (50 μL) were taken from the incubation mixture at regular time intervals (t = 0, 3, 6, and 24 h), serially diluted in 0.85% NaCl solution, and plated on BAP. Bacterial colonies were counted, and the data are presented as the means of at least three independent experiments.

PA-002, blaIMP [3] = assay: Time–kill assay; conditions: 24 h
Procedure: as §1

PA-017, blaNDM = assay: Time–kill assay; conditions: 24 h
Procedure: as §1

PA-014, blaGES = assay: Time–kill assay; conditions: 24 h
Procedure: as §1

PA-002, blaIMP [4] = assay: MIC / checkerboard with ATM; design: key to Susceptibility category: S: susceptible; I: intermediate; R: resistant; conditions: for MIC: Pseudomonas aeruginosa
PA-021, blaIMP = assay: MIC / checkerboard with ATM; design: key to Susceptibility category: S: susceptible; I: intermediate; R: resistant; conditions: for MIC: Pseudomonas aeruginosa
PA-034, blaNDM = assay: MIC / checkerboard with ATM; design: key to Susceptibility category: S: susceptible; I: intermediate; R: resistant; conditions: PA-034
PA-033, blaNDM = assay: MIC / checkerboard with ATM; design: key to Susceptibility category: S: susceptible; I: intermediate; R: resistant; conditions: for MIC: Pseudomonas aeruginosa
PA-003, blaVIM [5] = assay: MIC / checkerboard with ATM; design: key to Susceptibility category: S: susceptible; I: intermediate; R: resistant
PA-040, blaNDM = assay: MIC / checkerboard with ATM; design: key to Susceptibility category: S: susceptible; I: intermediate; R: resistant; conditions: for MIC: Pseudomonas aeruginosa

MIC50 ([1]; read-out: MIC50 of ATM, 5 at 0 mg/L): 16 µg/mL (≈ 36.7 µM) | MIC90 ([1]; read-out: MIC90 of ATM, 5 at 0 mg/L): 64 µg/mL (≈ 147 µM) | MIC (PA-035, blaGES; PA-035, Table S2, read-out: MIC value): 8 µg/mL | MIC (PA-035, blaGES; read-out: MIC of ATM, PA-035, ATM alone (5 at 0 mg/L)): 8 µg/mL | MIC (PA-002, blaIMP [4]; PA-002, Table S2, read-out: MIC value): 32 µg/mL | MIC (PA-002, blaIMP [4]; read-out: MIC of ATM, PA-002, ATM alone (5 at 0 mg/L)): 32 µg/mL | MIC (PA-021, blaIMP; PA-021, Table S2, read-out: MIC value): 1 µg/mL | MIC (PA-021, blaIMP; read-out: MIC of ATM, PA-021, ATM alone (5 at 0 mg/L)): 1 µg/mL | MIC (PA-033, blaNDM; PA-033, Table S2, read-out: MIC value): 2 µg/mL | MIC (PA-033, blaNDM; read-out: MIC of ATM, PA-033, ATM alone (5 at 0 mg/L)): 2 µg/mL | MIC (PA-003, blaVIM [5]; Pseudomonas aeruginosa, read-out: MIC of ATM): 32 µg/mL | MIC (PA-040, blaNDM; PA-040, Table S2, read-out: MIC value): 4 µg/mL | MIC (PA-040, blaNDM; read-out: MIC of ATM, PA-040, ATM alone (5 at 0 mg/L)): 4 µg/mL
SMILES: C[C@H]1[C@H](NC(=O)/C(=N\OC(C)(C)C(=O)O)c2csc(N)n2)C(=O)N1S(=O)(=O)O [ATM, aztreonam]
Susceptibility to ATM (PA-035, blaGES; PA-035, ATM alone): S (S (sensitive, MIC ≤ 8 mg/L)) | Susceptibility category (PA-035, blaGES; PA-035, Table S2): S | Log CFU/mL, ATM only (PA-003, blaVIM [2]; ATM 1/2 MIC): 9.88 Log CFU/mL | Log CFU/mL, ATM only (PA-003, blaVIM [2]; ATM 1/4 MIC): 10.18 Log CFU/mL | Log CFU/mL, ATM only (PA-003, blaVIM [2]; ATM 1 MIC): 9.13 Log CFU/mL | Log CFU/mL, ATM only (PA-003, blaVIM [2]; ATM 2 MIC): 6.40 Log CFU/mL | Log CFU/mL, ATM only (PA-002, blaIMP [3]; ATM 1/2 MIC): 9.02 Log CFU/mL | Log CFU/mL, ATM only (PA-002, blaIMP [3]; ATM 1/4 MIC): 9.48 Log CFU/mL | Log CFU/mL, ATM only (PA-002, blaIMP [3]; ATM 1 MIC): 8.15 Log CFU/mL | Log CFU/mL, ATM only (PA-002, blaIMP [3]; ATM 2 MIC): 5.50 Log CFU/mL | Log CFU/mL, ATM only (PA-017, blaNDM; ATM 1/2 MIC): 9.97 Log CFU/mL | Log CFU/mL, ATM only (PA-017, blaNDM; ATM 1/4 MIC): 10.74 Log CFU/mL | Log CFU/mL, ATM only (PA-017, blaNDM; ATM 1 MIC): 6.52 Log CFU/mL | Log CFU/mL, ATM only (PA-017, blaNDM; ATM 2 MIC): 0.12 Log CFU/mL | Log CFU/mL, ATM only (PA-014, blaGES; ATM 1/2 MIC): 8.83 Log CFU/mL | Log CFU/mL, ATM only (PA-014, blaGES; ATM 1/4 MIC): 9.33 Log CFU/mL | Log CFU/mL, ATM only (PA-014, blaGES; ATM 1 MIC): 7.68 Log CFU/mL | Log CFU/mL, ATM only (PA-014, blaGES; ATM 2 MIC): 2.45 Log CFU/mL | Susceptibility to ATM (PA-002, blaIMP [4]; PA-002, ATM alone): R (R (resistant, MIC ≥ 32 mg/L)) | Susceptibility category (PA-002, blaIMP [4]; PA-002, Table S2): R | Susceptibility to ATM (PA-021, blaIMP; PA-021, ATM alone): S (S (sensitive, MIC ≤ 8 mg/L)) | Susceptibility category (PA-021, blaIMP; PA-021, Table S2): S | Susceptibility to ATM (PA-034, blaNDM; ATM alone): I (I (intermediate, MIC = 16 mg/L)) | Susceptibility category (PA-034, blaNDM; Table S2): I | Susceptibility to ATM (PA-033, blaNDM; PA-033, ATM alone): S (S (sensitive, MIC ≤ 8 mg/L)) | Susceptibility category (PA-033, blaNDM; PA-033, Table S2): S | Susceptibility to ATM (PA-003, blaVIM [5]; PA-003, ATM alone): R (R (resistant, MIC ≥ 32 mg/L)) | Susceptibility category (PA-003, blaVIM [5]; PA-003, Table S2): I | Susceptibility to ATM (PA-040, blaNDM; PA-040, ATM alone): S (S (sensitive, MIC ≤ 8 mg/L)) | Susceptibility category (PA-040, blaNDM; PA-040, Table S2): S
